Data: patent US9879008B2, “2,3,4,6-tetra-substituted benzene-1,5-diamine derivatives, preparation method therefor and medicinal use thereof” (SHANGHAI HAIYAN PHARMACEUTICAL TECHNOLOGY CO., LTD., priority 2014, dated 2018)
Where two headings read alike, the source gives them in different places.

Legend:
H1975 cell = experiment: MTT cytostatic activity, H1975 cell; assay type: cell-based; conditions: for IC50: Homo sapiens, read-out: H1975 cell (IC50/nM); for Selective inhibitory activity against cells [IC50(A431 cell)/IC50(H1975 cell)]: ratio of cell IC50 values;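 for all read-outs here: cells in 96-well plates exposed to compound for 72 h, then given MTT for a further 4 h at 37 °C under 5% CO2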
NIH3T3 cell = experiment: MTT cytotoxicity against NIH3T3 cells; assay type: cell-based; conditions: Mus musculus, read-out: MTT assay against NIH3T3 cell (IC50/nM)
wild-type EGFR kinase = biological target: T1, wild-type EGFR kinase (Homo sapiens, UniProt P00533); experiment: z-lyte inhibition test against wild-type EGFR kinase; assay type: biochemical; conditions: 10 μM ATP, read-out: EGFR WT (IC50/nM);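 note: reaction volume 10 µL holding 0.8 ng/µL enzyme and 2 µM Tyr04 substrate, with DMSO at 2% once compounds are present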
T1 construct: purchased Invitrogen PV3872

A431 cell = experiment: MTT cytostatic activity, A431 cell; assay type: cell-based; conditions: Homo sapiens, A-431; MTT, 72 h; read-out: A431 cell (IC50/nM)
A431 cells = experiment: ELISA assay for cell activity, EGF-treated A431 cells; assay type: cell-based; conditions: Homo sapiens, A-431, compound 1 h, then EGF 45 min;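 note: Serum-starved A431 cells, ELISA on lysates read as OD450 minus OD570, inhibition scaled between EGF-stimulated wells (0%) and unstimulated cell control (100%), DMSO 0.5% final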
H1975 cells = experiment: ELISA assay for cell activity of EGFR T790M inhibitor, H1975 cells; conditions: for Selective inhibitory activities against cell [IC50(A431 cell)/IC50(H1975 cell)]: ELISA, ratio of cell IC50 values; for IC50: Homo sapiens, NCI-H1975, 1 h, read-out: H1975 cell (IC50/nM)
[1] = NIH3T3, cytotoxicity, MTT, 72 h

T1 sequence (P00533 25-1210): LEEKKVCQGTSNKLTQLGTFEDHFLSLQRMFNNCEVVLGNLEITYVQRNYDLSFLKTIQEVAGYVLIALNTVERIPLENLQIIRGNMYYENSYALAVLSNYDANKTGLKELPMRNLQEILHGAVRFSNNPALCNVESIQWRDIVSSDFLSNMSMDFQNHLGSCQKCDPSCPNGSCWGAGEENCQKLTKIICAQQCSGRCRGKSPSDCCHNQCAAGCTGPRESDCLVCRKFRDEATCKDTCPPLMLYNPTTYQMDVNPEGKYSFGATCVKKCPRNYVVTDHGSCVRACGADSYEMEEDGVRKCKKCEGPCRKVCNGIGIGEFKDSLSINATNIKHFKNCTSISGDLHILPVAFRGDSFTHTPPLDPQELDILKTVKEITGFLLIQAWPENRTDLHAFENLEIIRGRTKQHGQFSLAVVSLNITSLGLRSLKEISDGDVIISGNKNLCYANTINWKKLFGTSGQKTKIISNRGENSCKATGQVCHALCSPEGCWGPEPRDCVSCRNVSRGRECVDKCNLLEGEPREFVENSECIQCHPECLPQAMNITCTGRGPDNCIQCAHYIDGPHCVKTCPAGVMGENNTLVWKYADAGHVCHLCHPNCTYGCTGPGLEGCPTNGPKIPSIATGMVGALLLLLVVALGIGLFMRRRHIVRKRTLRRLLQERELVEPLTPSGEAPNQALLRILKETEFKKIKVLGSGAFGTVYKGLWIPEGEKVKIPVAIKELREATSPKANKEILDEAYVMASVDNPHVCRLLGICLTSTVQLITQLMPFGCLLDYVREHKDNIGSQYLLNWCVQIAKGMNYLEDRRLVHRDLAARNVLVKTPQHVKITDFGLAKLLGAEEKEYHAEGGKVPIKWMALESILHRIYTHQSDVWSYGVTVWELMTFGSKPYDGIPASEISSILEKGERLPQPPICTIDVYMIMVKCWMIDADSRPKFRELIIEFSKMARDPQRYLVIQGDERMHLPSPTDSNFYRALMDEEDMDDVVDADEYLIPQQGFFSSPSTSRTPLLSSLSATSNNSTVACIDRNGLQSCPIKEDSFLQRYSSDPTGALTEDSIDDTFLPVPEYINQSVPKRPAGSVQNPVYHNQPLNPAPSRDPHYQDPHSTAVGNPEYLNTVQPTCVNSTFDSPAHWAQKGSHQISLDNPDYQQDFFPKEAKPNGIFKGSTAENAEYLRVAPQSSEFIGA

| Compound | IC50 (wild-type EGFR kinase) [nM] | IC50 (NIH3T3 cell; [1]) [nM] | further results |
| --- | --- | --- | --- |
| CN(C)C/C=C/C(=O)Nc1cc2c(Nc3ccc(F)c(Cl)c3)ncnc2cc1O[C@H]1CCOC1 [BIBW2992, Afatinib, reference compound] |  |  | IC50 (H1975 cell; NCI-H1975, 72 h): 88 nM; IC50 (NIH3T3 cell; NIH3T3, 72 h): 2750 nM |
| C=CC(=O)Nc1cc(Nc2nccc(OC3CCN(C(=O)OC(C)(C)C)CC3)n2)c(OC)cc1N1CCC(N(C)C)CC1 [Compound J-2, tert-butyl 4-(2-(5-acrylamido-4-(4-(dimethylamino)piperidine-1-yl)-2-methoxyphenylamino)pyrimidine-4-oxy)piperidine-1-formate] | 154 |  |  |
| C=CC(=O)Nc1cc(Nc2ncc(Cl)c(OC3CCN(S(C)(=O)=O)CC3)n2)c(OC)cc1N(C)CCN(C)C [Compound J-3, N-(5-(5-chloro-4-(1-(methylsulfonyl)piperidine-4-oxy)pyrimidine-2-amino)-2-((2-(dimethylamino)ethyl)(methyl)amino)-4-methoxylphenyl) acrylamide] | 38 | > 10000 |  |
| C=CC(=O)Nc1cc(Nc2nccc(OC3CCN(S(C)(=O)=O)CC3)n2)c(OC)cc1N(C)CCN(C)C [Compound J-4, N-(2-((2-(dimethylamino)ethyl)(methyl)amino)-4-methoxy-5-(4-(1-(methylsulfonyl)piperidine-4-oxy)pyrimidine-2-amino)phenyl) acrylamide] | 52 | > 10000 |  |
| C=CC(=O)Nc1cc(Nc2nccc(OC3CCN(S(C)(=O)=O)CC3)n2)c(OC)cc1N1CCC(N(C)C)CC1 [Compound J-5, N-(2-(4-(dimethylamino)piperidine-1-yl)-4-methoxy-5-(4-(1-(methylsulfonyl)piperidine-4-oxy)pyrimidine-2-amino)phenyl)acrylamide] | 51 | > 10000 |  |
| C=CC(=O)Nc1cc(Nc2nccc(OC3CN(C(=O)c4ccccc4)C3)n2)c(OC)cc1N(C)CCN(C)C [Compound J-6] |  | > 10000 |  |
| C=CC(=O)Nc1cc(Nc2nccc(OC3CN(C(=O)c4ccccc4)C3)n2)c(OC)cc1N1CCC(N(C)C)CC1 [Compound J-8, N-(5-(4-(1-benzoylaza-3-oxy)pyrimidine-2-amino)-2-(4-(dimethylamino)piperidine-1-yl)-4-methoxylphenyl)acrylamide] |  | > 10000 |  |
| C=CC(=O)Nc1cc(Nc2nccc(OC3CN(S(=O)(=O)c4ccccc4)C3)n2)c(OC)cc1N1CCC(N(C)C)CC1 [Compound J-9, N-(2-(4-(dimethylamino)piperidine-1-yl)-4-methoxy-5-(4-(1-(phenylsulfonyl)azetidine-3-oxy)pyrimidino)phenyl)acrylamide] | 72 | > 10000 |  |
| C=CC(=O)Nc1cc(Nc2nccc(OC3CN(S(C)(=O)=O)C3)n2)c(OC)cc1N1CCC(N(C)C)CC1 [Compound J-10, N-(2-(4-(dimethylamino)piperidine-1-yl)-4-methoxy-5-(4-(1-(methylsulfonyl)azetidine-3-oxy)pyrimidine-2-amino)phenyl)acrylamide] |  | > 10000 | IC50 (H1975 cell; NCI-H1975, MTT, 72 h): 31 nM; Selective inhibitory activity against cells [IC50(A431 cell)/IC50(H1975 cell)] (H1975 cell; MTT): 19.2; IC50 (A431 cell): 596 nM |
| C=CC(=O)Nc1cc(Nc2nccc(OC3CN(c4cnc5ccccc5c4)C3)n2)c(OC)cc1N(C)CCN(C)C [Compound J-14, N-(2-((2-(dimethylamino)ethyl)(methyl)amino)-4-methoxy-5-(4-(1-(quinoline-3-yl)azetidine-3-oxy)pyrimidine-2-amino)phenyl)acrylamide] |  | > 10000 |  |
| C=CC(=O)Nc1cc(Nc2nccc(OC3CN(c4cnc5c(cnn5C)c4)C3)n2)c(OC)cc1N(C)CCN(C)C [Compound J-15] |  | > 10000 | IC50 (A431 cells): 835 nM; Selective inhibitory activities against cell [IC50(A431 cell)/IC50(H1975 cell)] (H1975 cells): 11.1; IC50 (H1975 cells): 75 nM |
| C=CC(=O)Nc1cc(Nc2nccc(OC3CN(c4cnc5c(ccn5C)c4)C3)n2)c(OC)cc1N(C)CCN(C)C [Compound J-16] |  | > 10000 |  |
| C=CC(=O)Nc1cc(Nc2nccc(OC3CN(c4cnc5c(cnn5C)c4)C3)n2)c(OC)cc1N1CCC(N(C)C)CC1 [Compound J-19] |  | > 10000 |  |
| C=CC(=O)Nc1cc(Nc2nccc(OC3CN(C(C)=O)C3)n2)c(OC)cc1N1CCC(N(C)C)CC1 [Compound J-20] | 69 | > 10000 | IC50 (H1975 cell; NCI-H1975, MTT, 72 h): 138 nM; Selective inhibitory activity against cells [IC50(A431 cell)/IC50(H1975 cell)] (H1975 cell; MTT): 38.8; IC50 (A431 cell): 5350 nM |
| C=CC(=O)Nc1cc(Nc2nccc(OC3CN(C(=O)c4ccc(F)cc4)C3)n2)c(OC)cc1N(C)CCN(C)C [Compound J-21] |  | > 10000 |  |
| C=CC(=O)Nc1cc(Nc2nccc(OC3CN(C(=O)c4ccc(C)cc4)C3)n2)c(OC)cc1N(C)CCN(C)C [Compound J-22] |  | > 10000 |  |
| C=CC(=O)Nc1cc(Nc2nccc(OC3CN(C(C)=O)C3)n2)c(OC)cc1N(C)CCN(C)C [Compound J-23] | 32 | > 10000 |  |
| C=CC(=O)Nc1cc(Nc2nccc(OC3CN(C(=O)c4ccc(C)cc4)C3)n2)c(OC)cc1N1CCC(N(C)C)CC1 [Compound J-24] | 119 | 6000 |  |
| C=CC(=O)Nc1cc(Nc2ncc(C#N)c(OC3CN(S(C)(=O)=O)C3)n2)c(OC)cc1N1CCC(N(C)C)CC1 [Compound J-32] | 11 | > 10000 |  |

| Compound | IC50 (wild-type EGFR kinase) [nM] | IC50 (NIH3T3 cell; [1]) [nM] | further results |
| --- | --- | --- | --- |
| C=CC(=O)Nc1cc(Nc2ncc(Cl)c(OCC3CN(C(C)=O)C3)n2)c(OC)cc1N1CCC(N(C)C)CC1 [Compound J-33] | 597 | > 10000 |  |
| C=CC(=O)Nc1cc(Nc2ncc(Cl)c(OCC3CN(S(C)(=O)=O)C3)n2)c(OC)cc1N1CCC(N(C)C)CC1 [Compound J-34] | 113 | > 10000 |  |
| C=CC(=O)Nc1cc(Nc2nccc(OC3CCCN(S(C)(=O)=O)CC3)n2)c(OC)cc1N(C)CCN(C)C (stereo not drawn) [Compound J-36] | 17 | > 10000 | IC50 (H1975 cell; NCI-H1975, MTT, 72 h): 69 nM; Selective inhibitory activity against cells [IC50(A431 cell)/IC50(H1975 cell)] (H1975 cell; MTT): 47.3; IC50 (A431 cell): 3260 nM |
| C=CC(=O)Nc1cc(Nc2ncc(Cl)c(O[C@H]3CCCN(S(C)(=O)=O)C3)n2)c(OC)cc1N1CCC(N(C)C)CC1 [Compound J-42] |  | > 10000 |  |
| C=CC(=O)Nc1cc(Nc2ncc(F)c(O[C@@H]3CCN(C(C)=O)C3)n2)c(OC)cc1N1CCC(N(C)C)CC1 [Compound J-49] | 259 |  |  |
| C=CC(=O)Nc1cc(Nc2ncc(F)c(O[C@@H]3CCN(S(C)(=O)=O)C3)n2)c(OC)cc1N1CCC(N(C)C)CC1 [Compound J-51] | 26 | > 10000 | IC50 (A431 cells): 937 nM; Selective inhibitory activities against cell [IC50(A431 cell)/IC50(H1975 cell)] (H1975 cells): 15; IC50 (H1975 cells): 64 nM |
| C=CC(=O)Nc1cc(Nc2ncc(F)c(O[C@H]3CCN(S(C)(=O)=O)C3)n2)c(OC)cc1N1CCC(N(C)C)CC1 [Compound J-52] | 47 | > 10000 | IC50 (A431 cells): 700 nM; Selective inhibitory activities against cell [IC50(A431 cell)/IC50(H1975 cell)] (H1975 cells): 15; IC50 (H1975 cells): 47 nM |
| C=CC(=O)Nc1cc(Nc2nccc(OC3CN(CCF)C3)n2)c(OC)cc1N(C)CCN(C)C [Compound J-53, N-(2-((2-(dimethylamino)ethyl)(methyl)amino)-5-(4-(1-(2-fluroethyl)azetidine-3-oxy)pyrimidine-2-amino)-4-methoxyphenyl) acrylamide] |  | > 10000 | IC50 (A431 cells): 225 nM; Selective inhibitory activities against cell [IC50(A431 cell)/IC50(H1975 cell)] (H1975 cells): 7.5; IC50 (H1975 cells): 30 nM |
| C=CC(=O)Nc1cc(Nc2ncc(Cl)c(OC3CN(CCF)C3)n2)c(OC)cc1N1CCC(N(C)C)CC1 [Compound J-54] | 376 | > 10000 | IC50 (H1975 cell; NCI-H1975, MTT, 72 h): 92 nM; Selective inhibitory activity against cells [IC50(A431 cell)/IC50(H1975 cell)] (H1975 cell; MTT): 66.1; IC50 (A431 cell): 6080 nM |
| C=CC(=O)Nc1cc(Nc2ncc(Cl)c(NC3CN(C(C)=O)C3)n2)c(OC)cc1N1CCC(N(C)C)CC1 [Compound J-61] | 181 | > 10000 |  |
| C=CC(=O)Nc1cc(Nc2ncc(F)c(NC3CN(S(C)(=O)=O)C3)n2)c(OC)cc1N1CCC(N(C)C)CC1 [Compound J-62] | 6 | > 10000 |  |
| C=CC(=O)Nc1cc(Nc2ncc(Cl)c(N[C@@H]3CCCN(CCF)C3)n2)c(OC)cc1N1CCC(N(C)C)CC1 [Compound J-67] | 2 |  |  |
| C=CC(=O)Nc1cc(Nc2ncc(Cl)c(N[C@H]3CCCN(CCF)C3)n2)c(OC)cc1N1CCC(N(C)C)CC1 [Compound J-68] | 41 | 7600 | IC50 (A431 cells): 388 nM; Selective inhibitory activities against cell [IC50(A431 cell)/IC50(H1975 cell)] (H1975 cells): 8.1; IC50 (H1975 cells): 48 nM |
| C=CC(=O)Nc1cc(Nc2ncc(Cl)c(NC3CCN(S(C)(=O)=O)CC3)n2)c(OC)cc1N1CCC(N(C)C)CC1 [Compound J-69] | 105 | > 10000 |  |
| C=CC(=O)Nc1cc(Nc2ncc(Cl)c(N(C)C3CN(S(C)(=O)=O)C3)n2)c(OC)cc1N1CCC(N(C)C)CC1 [Compound J-73] | 24 | > 10000 | IC50 (A431 cells): 494 nM; Selective inhibitory activities against cell [IC50(A431 cell)/IC50(H1975 cell)] (H1975 cells): 19; IC50 (H1975 cells): 26 nM |
| C=CC(=O)Nc1cc(Nc2ncc(Cl)c(NC3CC3)n2)c(OC)cc1N1CCC(N(C)C)CC1 [Compound J-74] | 216 |  | IC50 (A431 cells): 2030 nM; Selective inhibitory activities against cell [IC50(A431 cell)/IC50(H1975 cell)] (H1975 cells): 7.7; IC50 (H1975 cells): 264 nM |
| C=CC(=O)Nc1cc(Nc2ncc(Cl)c(OC3(C)CN(S(C)(=O)=O)C3)n2)c(OC)cc1N1CCC(N(C)C)CC1 [Compound J-75] | 463 |  | IC50 (A431 cells): > 10000 nM; Selective inhibitory activities against cell [IC50(A431 cell)/IC50(H1975 cell)] (H1975 cells): >22.8; IC50 (H1975 cells): 438 nM |
| C=CC(=O)Nc1cc(Nc2ncc(Cl)c(OC3CN(S(C)(=O)=O)C3)n2)ccc1N1CCC(N(C)C)CC1 [Compound J-76] | 14 |  |  |
